{
  "source": "patent US10035806B2",
  "about": "“Derivatized corroles and metallocorroles and their use as imaging and therapeutic agents” (CALIFORNIA INSTITUTE OF TECHNOLOGY, priority 2015, dated 2018)",
  "assay_in_all_cases": "NCI60 anticancer drug screen",
  "assay_type_in_all_cases": "cell-based, human",
  "key": {"[1]": {"test_system": "A498", "settings": "A498 (Renal Cancer), 10 μM, 48 h", "excerpt": "(§1) The aminocaproate-substituted corrole Complex 3 was submitted to NCI for cytotoxic screening at a single high dose (10−5M) in a panel of 60 human tumor cell lines (NCI60). Details of the cytotoxicity assessment in the NCI anticancer drug screen have been described previously, in Monks A, et al. (1991) Feasibility of a high-flux anticancer drug screen using a diverse panel of cultured human tumor cell lines. J Natl Cancer Inst 83(11):757-766, this reference being incorporated by reference for these teachings.\n(§2) In view of the promising results observed for carboxylated corroles, Complex 3 was selected for expanded cell screening to uncover additional susceptible cancer cell lines. The cytotoxic activity of Complex 3 was tested at a dose of 10^−5 M against 60 human cancer cell lines representing nine distinct tumor types in the anticancer screening program of the National Cancer Institute (NCI). The in vitro parameters for cytotoxicity, growth percent, and lethality were obtained for Complex 3 and reported as a mean graph of the percent growth of treated cells (FIG. 7). Bars in the mean graph depict the deviation of individual tumor cell lines from the overall mean value for all cells tested. Bars that project to the right of the mean represent cell lines that are more sensitive to Complex 3, whereas cell lines less sensitive to the compound display bars that project to the left.\n(§3) The numerical values associated with this assay represent growth relative to the no-drug control and the numbers of cells at time 0 (FIG. 7). This allows detection of both growth inhibition (values between 0 and 100) and lethality (values less than 0). For example, a value of 100 signifies no growth inhibition, 40 means 60% growth inhibition, 0 means no net growth over the course of the experiment, −40 means 40% lethality, and −100 indicates all cells are dead. […] Growth inhibitions reflect cytostatic activity of the compound as previously shown for Complex 2. In contrast, cell lethality is only evident in melanoma cells, specifically the LOX IMVI and SK-MEL-28 cell lines."}, "[2]": {"test_system": "ACHN", "settings": "ACHN (Renal Cancer), 10 μM, 48 h", "excerpt": "as §1, §2, §3"}, "[3]": {"test_system": "BT-549", "settings": "BT-549 (Breast Cancer), 10 μM, 48 h", "excerpt": "as §1, §2, §3"}, "[4]": {"test_system": "CCRF-CEM", "settings": "CCRF-CEM (Leukemia), 10 μM, 48 h", "excerpt": "as §1, §2, §3"}, "[5]": {"test_system": "COLO 205", "settings": "COLO 205 (Colon cancer), 10 μM, 48 h", "excerpt": "as §1, §2, §3"}, "[6]": {"test_system": "DU-145", "settings": "DU-145 (Prostate Cancer), 10 μM, 48 h", "excerpt": "as §1, §2, §3"}, "[7]": {"test_system": "HCT-116", "settings": "HCT-116 (Colon cancer), 10 μM, 48 h", "excerpt": "as §1, §2, §3"}, "[8]": {"test_system": "HCT-15", "settings": "HCT-15 (Colon cancer), 10 μM, 48 h", "excerpt": "as §1, §2, §3"}, "[9]": {"test_system": "HS 578T", "settings": "HS 578T (Breast Cancer), 10 μM, 48 h", "excerpt": "as §1, §2, §3"}, "[10]": {"test_system": "IGROV1", "settings": "IGROV1 (Ovarian Cancer), 10 μM, 48 h", "excerpt": "as §1, §2, §3"}, "[11]": {"test_system": "K-562", "settings": "K-562 (Leukemia), 10 μM, 48 h", "excerpt": "as §1, §2, §3"}, "[12]": {"test_system": "M14", "settings": "M14 (Melanoma), 10 μM, 48 h", "excerpt": "as §1, §2, §3"}, "[13]": {"test_system": "MALME-3M", "settings": "MALME-3M (Melanoma), 10 μM, 48 h", "excerpt": "as §1, §2, §3"}, "[14]": {"test_system": "MDA-MB-435", "settings": "MDA-MB-435 (Melanoma), 10 μM, 48 h", "excerpt": "as §1, §2, §3"}, "[15]": {"test_system": "MOLT-4", "settings": "MOLT-4 (Leukemia), 10 μM, 48 h", "excerpt": "as §1, §2, §3"}, "[16]": {"test_system": "NCI-H226", "settings": "NCI-H226 (Non-small-cell lung cancer), 10 μM, 48 h", "excerpt": "as §1, §2, §3"}, "[17]": {"test_system": "NCI-H23", "settings": "NCI-H23 (Non-small-cell lung cancer), 10 μM, 48 h", "excerpt": "as §1, §2, §3"}, "[18]": {"test_system": "NCI-H522", "settings": "NCI-H522 (Non-small-cell lung cancer), 10 μM, 48 h", "excerpt": "as §1, §2, §3"}, "[19]": {"test_system": "NCl/ADR-RES", "settings": "NCl/ADR-RES (Ovarian Cancer), 10 μM, 48 h", "excerpt": "as §1, §2, §3"}, "[20]": {"test_system": "OVCAR-3", "settings": "OVCAR-3 (Ovarian Cancer), 10 μM, 48 h", "excerpt": "as §1, §2, §3"}, "[21]": {"test_system": "OVCAR-5", "settings": "OVCAR-5 (Ovarian Cancer), 10 μM, 48 h", "excerpt": "as §1, §2, §3"}, "[22]": {"test_system": "PC-3", "settings": "PC-3 (Prostate Cancer), 10 μM, 48 h", "excerpt": "as §1, §2, §3"}, "[23]": {"test_system": "SF-295", "settings": "SF-295 (CNS Cancer), 10 μM, 48 h", "excerpt": "as §1, §2, §3"}, "[24]": {"test_system": "SK-MEL-2", "settings": "SK-MEL-2 (Melanoma), 10 μM, 48 h", "excerpt": "as §1, §2, §3"}, "[25]": {"test_system": "SK-OV-3", "settings": "SK-OV-3 (Ovarian Cancer), 10 μM, 48 h", "excerpt": "as §1, §2, §3"}, "[26]": {"test_system": "SN12C", "settings": "SN12C (Renal Cancer), 10 μM, 48 h", "excerpt": "as §1, §2, §3"}, "[27]": {"test_system": "SW-620", "settings": "SW-620 (Colon cancer), 10 μM, 48 h", "excerpt": "as §1, §2, §3"}, "[28]": {"test_system": "UACC-62", "settings": "UACC-62 (Melanoma), 10 μM, 48 h", "excerpt": "as §1, §2, §3"}},
  "data": [
    {"smiles": "O=C(O)CCCCCNc1c(F)c(F)c(C2=C3C=CC4=[N+]3[Ga-]35[n]6c2ccc6C(c2c(F)c(F)c(F)c(F)c2F)=c2ccc([n]23)=C(c2c(F)c(F)c(F)c(F)c2F)c2ccc4[n]25)c(F)c1F", "note": "(stereo not shown) [Complex 3]", "values": [
      {"measurement": "Growth inhibition, %", "setting": "[1]", "value": 99.0, "unit": "%"},
      {"measurement": "Growth inhibition, %", "setting": "[2]", "value": 73.2, "unit": "%"},
      {"measurement": "Growth inhibition, %", "setting": "[3]", "value": 73.0, "unit": "%"},
      {"measurement": "Growth inhibition, %", "setting": "[4]", "value": 91.1, "unit": "%"},
      {"measurement": "Growth inhibition, %", "setting": "[5]", "value": 51.7, "unit": "%"},
      {"measurement": "Growth inhibition, %", "setting": "[6]", "value": 64.7, "unit": "%"},
      {"measurement": "Growth inhibition, %", "setting": "[7]", "value": 75.5, "unit": "%"},
      {"measurement": "Growth inhibition, %", "setting": "[8]", "value": 57.0, "unit": "%"},
      {"measurement": "Growth inhibition, %", "setting": "[9]", "value": 81.2, "unit": "%"},
      {"measurement": "Growth inhibition, %", "setting": "[10]", "value": 55.7, "unit": "%"},
      {"measurement": "Growth inhibition, %", "setting": "[11]", "value": 72.9, "unit": "%"},
      {"measurement": "Growth inhibition, %", "setting": "[12]", "value": 84.1, "unit": "%"},
      {"measurement": "Growth inhibition, %", "setting": "[13]", "value": 50.4, "unit": "%"},
      {"measurement": "Growth inhibition, %", "setting": "[14]", "value": 90.8, "unit": "%"},
      {"measurement": "Growth inhibition, %", "setting": "[15]", "value": 86.0, "unit": "%"},
      {"measurement": "Growth inhibition, %", "setting": "[16]", "value": 61.1, "unit": "%"},
      {"measurement": "Growth inhibition, %", "setting": "[17]", "value": 64.5, "unit": "%"},
      {"measurement": "Growth inhibition, %", "setting": "[18]", "value": 44.6, "unit": "%"},
      {"measurement": "Growth inhibition, %", "setting": "[19]", "value": 52.7, "unit": "%"},
      {"measurement": "Growth inhibition, %", "setting": "[20]", "value": 75.9, "unit": "%"},
      {"measurement": "Growth inhibition, %", "setting": "[21]", "value": 53.1, "unit": "%"},
      {"measurement": "Growth inhibition, %", "setting": "[22]", "value": 71.9, "unit": "%"},
      {"measurement": "Growth inhibition, %", "setting": "[23]", "value": 53.2, "unit": "%"},
      {"measurement": "Growth inhibition, %", "setting": "[24]", "value": 64.1, "unit": "%"},
      {"measurement": "Growth inhibition, %", "setting": "[25]", "value": 32.9, "unit": "%"},
      {"measurement": "Growth inhibition, %", "setting": "[26]", "value": 78.8, "unit": "%"},
      {"measurement": "Growth inhibition, %", "setting": "[27]", "value": 75.9, "unit": "%"},
      {"measurement": "Growth inhibition, %", "setting": "[28]", "value": 91.6, "unit": "%"}
    ]}
  ]
}
